From patent US10597390B2, “Indoles for use in influenza virus infection” (Janssen Sciences Ireland UC, priority 2014, dated 2020)

What was measured:
in vitro = settings: dog, TOX MDCK CC50
[1] = system: influenza virus A/Taiwan/1/86 (H1N1); test: organism not typed; format: cell-based; settings: MDCK, 72 h, CPE in MDCK cells, three days post-virus exposure, ATPlite

| SMILES | CC50 at 3 days (in vitro) | melting point | IC50 [1] |
| --- | --- | --- | --- |
| Cn1ccnc1C(=O)N[C@H]1CCC[C@@H](Nc2nc(-c3c[nH]c4c(F)cc(F)cc34)ncc2F)C1 [Compound 83] | 9600 nM | 166.6 °C | 2 nM |
| Cc1cc(F)c2[nH]cc(-c3nc(N[C@H]4CCC[C@@H](NC(=O)c5cn(C)cn5)C4)c(F)cc3C#N)c2c1 (racemic) [Compound 195] | 6600 nM | > 250 °C | 20 nM |
| Nc1n[nH]cc1C(=O)N[C@@H]1CCC[C@H](Nc2nc(-c3c[nH]c4c(F)cc(Cl)cc34)ncc2F)C1 [Compound 77] | 9900 nM | 133 °C | 3 nM |
| CC1([C@@H](CC(=O)O)Nc2nc(-c3c[nH]c4c(F)cc(F)cc34)c(C#N)cc2F)CCCC1 [Compound 245] | 700 nM | 289.6 °C | 3 nM |
| Cc1c[nH]c(C(=O)N[C@@H]2CCC[C@H](Nc3nc(-c4c[nH]c5c(F)cc(F)cc45)ncc3F)C2)n1 [Compound 135] | 8400 nM | 281.9 °C | 2 nM |
| Cn1nnc(C(=O)N[C@@H]2CCC[C@H](Nc3nc(-c4c[nH]c5c(F)cc(Cl)cc45)ncc3F)C2)n1 [Compound 74] | > 25000 nM | 259.7 °C | 19 nM |
| N#Cc1cc(F)c(N[C@H]2CCC[C@@H](NC(=O)c3ncccc3F)C2)nc1-c1c[nH]c2c(F)cc(F)cc12 (racemic) [Compound 212] | > 25000 nM | 289 °C | 10 nM |
| Cc1cc(C(=O)N[C@@H]2CCC[C@H](Nc3nc(-c4c[nH]c5c(F)cc(F)cc45)ncc3F)C2)n(C)n1 [Compound 116] | 5800 nM | 279 °C | 12 nM |
| N#Cc1cc(F)c(N[C@@H]2CCC[C@@H](NC(=O)c3ccccn3)C2)nc1-c1c[nH]c2c(F)cc(F)cc12 [Compound 209] | > 25000 nM | 257 °C | 3 nM |
| Cc1cc(F)c2[nH]cc(-c3ncc(F)c(NC(CC(=O)O)C(C)(C)c4nccs4)n3)c2c1 (stereo not drawn) [Compound 233] | 17300 nM | 237.2 °C | 15 nM |
| Cn1nc(N)cc1C(=O)N[C@@H]1CCC[C@H](Nc2nc(-c3c[nH]c4c(F)cc(Cl)cc34)ncc2F)C1 [Compound 68] | 21000 nM | 267.2 °C | 3 nM |
| CC(C)(c1cccs1)C(CC(=O)O)Nc1nc(-c2c[nH]c3c(F)cc(F)cc23)c(C#N)cc1F (stereo not drawn) [Compound 229, 3-((5-cyano-6-(5,7-difluoro-1H-indol-3-yl)-3-fluoropyridin-2-yl)amino)-4-methyl-4-(thiophen-2-yl)pentanoic Acid] | 200 nM | 235.7 °C | 18 nM |
| Nc1cc(C(=O)N[C@@H]2CCC[C@H](Nc3nc(-c4c[nH]c5c(F)cc(Cl)cc45)ncc3F)C2)n[nH]1 [Compound 59] | 7800 nM | 245.2 °C | 2 nM |
| NC(=O)c1cc(F)c(N[C@@H]2CCC[C@H](NC(=O)N3CCCC3)C2)nc1-c1c[nH]c2c(F)cc(F)cc12 (racemic) [Compound 23] | > 25000 nM | 249.2 °C | 140 nM |
| O=C(N[C@@H]1CCC[C@H](Nc2nc(-c3c[nH]c4c(F)cc(F)cc34)ncc2F)C1)[C@H]1CCCN1 [Compound 148] | 10300 nM | 220.8 °C | 600 nM |
| Cn1nccc1C(=O)N[C@@H]1CCC[C@H](Nc2nc(-c3c[nH]c4c(F)cc(Cl)cc34)ncc2F)C1 [Compound 61] | > 25000 nM | > 300 °C | 1 nM |
| Cc1cc(F)c2[nH]cc(-c3ncc(F)c(N[C@@H]4CCC[C@@H](NC(=O)N5CCCC5)C4)n3)c2c1 (racemic) [Compound 20] | 15100 nM | 94 °C | 12 nM |
| Cc1ocnc1C(=O)N[C@@H]1CCC[C@H](Nc2nc(-c3c[nH]c4c(F)cc(F)cc34)ncc2F)C1 [Compound 132] | 11400 nM | 266.7 °C | 2 nM |

| SMILES | CC50 at 3 days (in vitro) | melting point | IC50 [1] |
| --- | --- | --- | --- |
| Cn1cc(C(=O)N[C@@H]2CCC[C@H](Nc3nc(-c4c[nH]c5c(F)cc(Cl)cc45)ncc3F)C2)nn1 [Compound 67] | 840 nM | 283 °C | 12 nM |
| Cn1cc(Br)nc1C(=O)N[C@@H]1CCC[C@H](Nc2nc(-c3c[nH]c4c(F)cc(F)cc34)ncc2F)C1 [Compound 128] | 5900 nM | 176 °C | 10 nM |
| Cc1cc(F)c2[nH]cc(-c3ncc(F)c(N[C@@H]4CCC[C@H](NC(=O)c5ccccn5)C4)n3)c2c1 (racemic) [Compound 21] | 4800 nM | 208 °C | 4 nM |
| O=C(N[C@@H]1CCC[C@H](Nc2nc(-c3c[nH]c4c(F)cc(F)cc34)ncc2F)C1)c1ncn[nH]1 [Compound 114] | > 25000 nM | 289.8 °C | 430 nM |
| COc1cccc(C(=O)N[C@@H]2CCC[C@H](Nc3nc(-c4c[nH]c5c(F)cc(F)cc45)ncc3F)C2)n1 [Compound 98] | 14700 nM | 240 °C | 43 nM |
| COc1ccnc(C(=O)N[C@@H]2CCC[C@H](Nc3nc(-c4c[nH]c5c(F)cc(F)cc45)c(C#N)cc3F)C2)c1 [Compound 161] | > 25000 nM | 285.5 °C | 3 nM |
| COc1cccc(C(=O)N[C@@H]2CCC[C@H](Nc3nc(-c4c[nH]c5c(F)cc(Cl)cc45)ncc3F)C2)n1 [Compound 31] | 19900 nM | 256.7 °C | 47 nM |
| Cn1ncc(C(=O)N[C@@H]2CCC[C@H](Nc3nc(-c4c[nH]c5c(F)cc(F)cc45)ncc3F)C2)c1N [Compound 156] | 8500 nM | 248.7 °C | 0.8 nM |
| O=C(N[C@@H]1CCC[C@H](Nc2nc(-c3c[nH]c4c(F)cc(F)cc34)ncc2F)C1)c1ncc[nH]1 [Compound 127] | > 100000 nM | > 300 °C | 1 nM |
| CC(C)(c1ccccn1)C(CC(=O)O)Nc1nc(-c2c[nH]c3c(F)cc(F)cc23)c(C#N)cc1F (stereo not drawn) [Compound 237, 3-((5-cyano-6-(5,7-difluoro-1H-indol-3-yl)-3-fluoropyridin-2-yl)amino)-4-methyl-4-(pyridin-2-yl)pentanoic Acid] | 400 nM | 230.8 °C | 3 nM |
| CC(=O)NCc1ccc(N[C@H]2CCC[C@@H](NC(=O)N3CCCC3)C2)nc1-c1c[nH]c2c(F)cc(F)cc12 (racemic) [Compound 260, N-((cis)-3-((5-(acetamidomethyl)-6-(5,7-difluoro-1H-indol-3-yl)pyridin-2-yl)amino)-cyclohexyl)pyrrolidine-1-carboxamide] | > 25000 nM | 235.8 °C | 610 nM |
| O=C(O)c1n[nH]nc1C(=O)N[C@@H]1CCC[C@H](Nc2nc(-c3c[nH]c4c(F)cc(F)cc34)ncc2F)C1 [Compound 147] | > 25000 nM | > 300 °C | 47 nM |
| COC(C)(C)C(CC(=O)O)Nc1nc(-c2c[nH]c3c(F)cc(F)cc23)c(C#N)cc1F (stereo not drawn) [Compound 240, 3-((5-cyano-6-(5,7-difluoro-1H-indol-3-yl)-3-fluoropyridin-2-yl)amino)-4-methoxy-4-methylpentanoic Acid] | 900 nM | 218.8 °C | 47 nM |
| O=C(N[C@@H]1CCC[C@H](Nc2nc(-c3c[nH]c4c(F)cc(F)cc34)ncc2F)C1)c1cncnc1 [Compound 138] | > 25000 nM | > 300 °C | 39 nM |
| CC1(C(CC(=O)O)Nc2nc(-c3c[nH]c4c(F)cc(F)cc34)c(C#N)cc2F)CCCC1 (stereo not drawn) [Compound 244, 3-((5-cyano-6-(5,7-difluoro-1H-indol-3-yl)-3-fluoropyridin-2-yl)amino)-3-(1-methylcyclopentyl)propanoic Acid] | 60 nM | 150 °C | 5 nM |
| Cc1cc(C(=O)N[C@@H]2CCC[C@H](Nc3nc(-c4c[nH]c5c(F)cc(Cl)cc45)ncc3F)C2)nn1C [Compound 36] | 5500 nM | 178.2 °C | 10 nM |
| Cc1c(C(=O)N[C@@H]2CCC[C@H](Nc3nc(-c4c[nH]c5c(F)cc(F)cc45)ncc3F)C2)nnn1C [Compound 117] | 8700 nM | 202 °C | 11 nM |
| O=C(N[C@@H]1CCC[C@H](Nc2nc(-c3c[nH]c4c(F)cc(F)cc34)ncc2F)C1)c1cc[nH]n1 [Compound 126] | 10000 nM | > 300 °C | 2 nM |
